Measured values published in article PMC7217877, “N-AS-triggered SPMs are direct regulators of microglia in a model of Alzheimer’s disease” (Nature Communications, 2020).
Residue numbers refer to the chain shown, from its start. Several values for one entry are separate records, joined by “and”; a condition that tells them apart may be missing. Equal values may be shown once.

Columns and labels:
Test in all cases: in vitro [14C] acetylation assay of purified COX2
Format in all cases: biochemical
Settings in all cases: replicates, listed as C14 N-AS
[1] = biological target: T1, COX2 S565A (Homo sapiens, UniProt P35354, S565A)
T1 construct: His (N); made in house
T1 sequence (P35354 18-604 S565A): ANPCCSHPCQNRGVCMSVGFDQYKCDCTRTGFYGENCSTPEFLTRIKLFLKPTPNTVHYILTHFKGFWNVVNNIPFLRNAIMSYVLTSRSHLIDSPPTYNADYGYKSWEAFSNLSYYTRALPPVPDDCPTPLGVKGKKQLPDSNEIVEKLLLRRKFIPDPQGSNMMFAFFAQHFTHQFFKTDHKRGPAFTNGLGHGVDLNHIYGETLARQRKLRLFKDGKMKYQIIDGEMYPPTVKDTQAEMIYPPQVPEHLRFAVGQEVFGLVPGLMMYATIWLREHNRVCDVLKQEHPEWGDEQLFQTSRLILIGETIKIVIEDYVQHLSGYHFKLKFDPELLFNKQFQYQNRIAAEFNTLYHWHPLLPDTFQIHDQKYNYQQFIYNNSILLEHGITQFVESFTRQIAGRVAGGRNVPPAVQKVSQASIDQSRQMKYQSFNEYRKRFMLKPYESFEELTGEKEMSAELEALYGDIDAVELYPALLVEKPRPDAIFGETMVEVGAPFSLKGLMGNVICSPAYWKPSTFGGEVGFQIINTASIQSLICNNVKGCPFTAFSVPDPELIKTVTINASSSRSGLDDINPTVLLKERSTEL
From the text: (§1) Single point mutations in SphK1 (R56A, R57A, R24A, R185A, D178A, and F192A) and COX2 (S565A, N181A, T564A, and S567A) were generated using the In-Fusion Cloning Kits (Clontech) and ORF cDNA expression plasmids of human SphK1 and COX2 gene (Sino Biological Inc, HG15679-NH and HG12036-NH), according to the manufacturer’s instructions. The forward and reverse primers described in Supplementary Table 4. The SphK1 WT, SphK1 mutants, COX2 WT, and COX2 mutant plasmids were transformed in the One shot TOP 10 competent cell (Invitrogen). The bacteria were grown in Luria-Bertani (LB, Invitrogen) plates supplemented with 50 μg ml^−1 kanamycin (Sigma-Aldrich) at 37 °C. The bacterial cell pellets were resuspended in lysis buffer containing 20 mM sodium phosphate (GE Healthcare), 500 mM NaCl (GE Healthcare), 20 mM imidazole (pH 7.4) (GE Healthcare), 0.2 mg ml^−1 lysozyme (Sigma-Aldrich), 20 μg ml^−1 DNase I (Roche), 1 mM MgCl2 (Sigma-Aldrich), and 1 mM PMSF (Sigma-Aldrich) before being lysed by sonication and clarified by centrifugation at 15,493×g for 10 min. Proteins were purified from the soluble fraction using His-Spin Trap columns (GE Healthcare) and the binding and acetylation assays were performed.
(§2) Acetylation assays were performed according to previously described procedures with minor modifications. […] To confirm the N-AS-mediated COX2 acetylation, 10 μg COX2 (WT or mutants) was used incubated with [^14C] N-AS (2 μCi, ARC UK Ltd, ARC-1024) at 37 °C for 2 h. [^14C] aspirin (2 μCi, ARC UK Ltd, ARC-0473) was conducted as the positive control. The reactions were terminated by placing the reaction tubes in ice for 5 min. To evaluate in vivo neuronal and microglial COX2 acetylation, 10 μCi [^14C] N-AS was orally administrated to 9-months-old WT and APP/PS1 mice. After 1 h, neuron and microglia were isolated and sonicated in culture media. […] Acetylated COX2 proteins bound to the beads were analyzed using a Tri-Carb 3110TR liquid scintillation counter (Perkin-Elmer).

[2] = biological target: T2, COX2 S567A (Homo sapiens, UniProt P35354, S567A)
T2 construct: His (N); made in house
T2 sequence (P35354 18-604 S567A): T1 sequence (P35354 18-604 S565A) with A548S, S550A
From the text: as §1, §2

[3] = biological target: T3, COX2 N181A (Homo sapiens, UniProt P35354, N181A)
T3 construct: His (N); made in house
T3 sequence (P35354 18-604 N181A): T1 sequence (P35354 18-604 S565A) with N164A, A548S
From the text: as §1, §2

**Q.** Which “C14 radioactivity of COX2, acetylation assay (Fig 1h)” value (from here on “C14 radioactivity of COX2”) [1] does the source give for `CCCCCCCCCCCCC/C=C/[C@@H](O)[C@H](CO)NC(C)=O` [N-AS, N-((2S,3R,E)-1,3-Dihydroxyoctadec-4-en-2-yl)acetamide] here?
**A.** 117550 and 118051 and 117876 and 111509 and 116124 and 117620

**Q.** And the “C14 radioactivity of COX2” value [2]?
**A.** 185354 and 188203 and 187860 and 187573 and 187463 and 187847

**Q.** What about the “C14 radioactivity of COX2” value [3] of the same compound?
**A.** 141977 and 143404 and 142984 and 143554 and 143318 and 142968
